# Data reported in patent US9198433B2, “Substituted benzene fungicides” (E I DU PONT DE NEMOURS AND COMPANY, priority 2007, dated 2015).
# Marks after values point to notes of the source that are not given here.
# Columns and labels:
# Type in all cases: in vivo
# [1] = system: Alternaria solani; assay: Test H: tomato early blight, preventive spray on tomato seedlings, disease rating
# Text: (§1) The test compounds were first dissolved in acetone in an amount equal to 3% of the final volume and then suspended at the desired concentration (in ppm) in acetone and purified water (50/50 mix) containing 250 ppm of the surfactant Trem® 014 (polyhydric alcohol esters). The resulting test suspensions were then used in Tests A-L. Spraying a 200 ppm test suspension to the point of run-off on the test plants was the equivalent of an application rate of 500 g/ha. The test suspension was sprayed to the point of run-off on tomato seedlings. […] A dash (-) indicates no test results. All results are for 200 ppm except where followed by an “*”, which indicates 40 ppm or “**”, which indicates 50 ppm.
# [2] = system: Septoria tritici; assay: Test D: wheat leaf blotch, preventive spray on wheat seedlings, disease rating; conditions: 40 ppm (*)
# Text: The test compounds were first dissolved in acetone in an amount equal to 3% of the final volume and then suspended at the desired concentration (in ppm) in acetone and purified water (50/50 mix) containing 250 ppm of the surfactant Trem® 014 (polyhydric alcohol esters). The resulting test suspensions were then used in Tests A-L. Spraying a 200 ppm test suspension to the point of run-off on the test plants was the equivalent of an application rate of 500 g/ha. The test suspension was sprayed to the point of run-off on wheat seedlings. The following day the seedlings were inoculated with a spore suspension of Septoria tritici (the causal agent of wheat leaf blotch) and incubated in a saturated atmosphere at 24° C. for 48 h, and then moved to a growth chamber at 20° C. for 19 days, after which time disease ratings were made. […] A dash (-) indicates no test results. All results are for 200 ppm except where followed by an “*”, which indicates 40 ppm or “**”, which indicates 50 ppm.
# [3] = system: Septoria nodorum; assay: Test C: wheat glume blotch, preventive spray on wheat seedlings, disease rating
# Text: (§2) The test compounds were first dissolved in acetone in an amount equal to 3% of the final volume and then suspended at the desired concentration (in ppm) in acetone and purified water (50/50 mix) containing 250 ppm of the surfactant Trem® 014 (polyhydric alcohol esters). The resulting test suspensions were then used in Tests A-L. Spraying a 200 ppm test suspension to the point of run-off on the test plants was the equivalent of an application rate of 500 g/ha. The test suspension was sprayed to the point of run-off on wheat seedlings. […] A dash (-) indicates no test results. All results are for 200 ppm except where followed by an “*”, which indicates 40 ppm or “**”, which indicates 50 ppm.
# [4] = system: Puccinia recondita f. sp. tritici; assay: Test B: wheat leaf rust, preventive spray on wheat seedlings, disease rating; conditions: 40 ppm (*)
# Text: as §2
# [5] = system: Botrytis cinerea; assay: Test F: tomato Botrytis, preventive spray on tomato seedlings, disease rating
# Text: as §1
# [6] = system: Erysiphe graminis f. sp. tritici; assay: Test A: wheat powdery mildew, preventive spray on wheat seedlings, disease rating; conditions: 40 ppm (*)
# Text: as §2
Compound,"Percentage Disease Control, Test H ([1]; 40 ppm (*))","Percentage Disease Control, Test D [2]","Percentage Disease Control, Test C ([3]; 40 ppm (*))","Percentage Disease Control, Test B [4]","Percentage Disease Control, Test F ([5]; 40 ppm (*))","Percentage Disease Control, Test A [6]","Percentage Disease Control, Test H ([1]; 200 ppm) [%]","Percentage Disease Control, Test F ([5]; 200 ppm) [%]","Percentage Disease Control, Test C ([3]; 200 ppm) [%]"
COC(=O)NCc1cc(-c2ccn(CC(C)Oc3ccccc3)n2)ccc1Cl (racemic) [Cmpd 61],0* %,99* %,99* %,100* %,0* %,84* %,–,–,–
COC(=O)NCc1cc(-c2ccn(-c3ccccc3C(F)(F)F)n2)ccc1Cl [Cmpd 51],60* %,100* %,98* %,99* %,0* %,97* %,–,–,–
COC(=O)NCc1cc(-c2ccn(-c3ccccc3Cl)n2)ccc1Cl [Cmpd 52],–,100* %,100* %,100* %,–,100* %,92,99,–
COC(=O)NCc1cc(-c2ccn(Cc3cc(C(F)(F)F)ccc3Cl)n2)ccc1Cl [Cmpd 53],92* %,99* %,94* %,99* %,0* %,98* %,–,–,–
COC(=O)NCc1cc(-c2ccn(-c3ccccc3C(C)=O)n2)ccc1Cl [Cmpd 54],–,99* %,99* %,100* %,0* %,99* %,–,–,–
COC(=O)NCc1cc(-c2ccn(Cc3ccc(-c4ccccc4C#N)cc3)n2)ccc1Cl [Cmpd 55],16* %,95* %,92* %,88* %,0* %,88* %,–,–,–
COC(=O)NCc1cc(-c2ccn(CCC(=O)c3ccc(Cl)cc3)n2)ccc1Cl [Cmpd 56],92* %,90* %,97* %,97* %,0* %,89* %,–,–,–
COC(=O)NCc1cc(-c2ccn(Cc3ccccc3)n2)ccc1Cl [Cmpd 57],96* %,100* %,87* %,100* %,0* %,97* %,–,–,–
COC(=O)NCc1cc(-c2ccn(CCc3ccccc3)n2)ccc1Cl [Cmpd 58],89* %,99* %,100* %,100* %,0* %,98* %,–,–,–
COC(=O)NCc1cc(-c2ccn(CCOc3ccccc3)n2)ccc1Cl [Cmpd 59],87* %,97* %,99* %,100* %,0* %,98* %,–,–,–
COC(=O)NCc1cc(-c2ccn(Cc3cccc(Cl)c3)n2)ccc1Cl [Cmpd 60],24* %,99* %,99* %,99* %,0* %,98* %,–,–,–
COC(=O)NCc1cc(-c2ccn(Cc3ccccc3C(F)(F)F)n2)ccc1Cl [Cmpd 62],0* %,100* %,100* %,99* %,0* %,99* %,–,–,–
COC(=O)NCc1cc(-c2ccn(Cc3ccc(C(F)(F)F)cc3)n2)ccc1Cl [Cmpd 63],98* %,100* %,99* %,100* %,0* %,97* %,–,–,–
COC(=O)NNc1cc(-c2ccn(-c3cccc(C(F)(F)F)c3)n2)ccc1Cl [Cmpd 64],–,93* %,–,100* %,–,99* %,62,16,99
COC(=O)NCc1cc(-c2ccn(Cc3ccccc3C)n2)ccc1Cl [Cmpd 70],96* %,100* %,100* %,99* %,–,99* %,–,–,–
COC(=O)NCc1cc(-c2ccn(Cc3cccc(C)c3)n2)ccc1Cl [Cmpd 71],84* %,100* %,100* %,100* %,–,99* %,–,–,–
COC(=O)NCc1cc(-c2ccn(-c3ccc(OC(F)(F)F)cc3)n2)ccc1Cl [Cmpd 77],96* %,100* %,100* %,100* %,–,99* %,–,–,–
COC(=O)NCc1cc(-c2ccn(-c3ccc(C(F)(F)F)cc3)n2)ccc1Cl [Cmpd 79],–,99* %,100* %,99* %,0* %,99* %,–,–,–
COC(=O)NCc1cc(-c2ccn(-c3ccc(-c4ccccc4)cc3)n2)ccc1Cl [Cmpd 82],7* %,–,86* %,0* %,0* %,60* %,–,–,–
CCCCn1nc(-c2ccc(Cl)c(CNC(=O)OC)c2)cc1C(F)(F)F [Cmpd 102],–,98* %,96* %,98* %,–,98* %,–,0,–
CCCn1nc(-c2ccc(Cl)c(CNC(=O)OC)c2)cc1C(F)(F)F [Cmpd 103],–,99* %,–,98* %,–,99* %,–,0,87
